# According to ChEMBL document CHEMBL4219040, “Modulation of Glycine-Mediated Spinal Neurotransmission for the Treatment of Chronic Pain” (J Med Chem, 2018):
# Legend:
# [1] = molecular target: T1, Glycine receptor alpha-3/beta (Homo sapiens, UniProt O75311+P48167); assay: Positive allosteric modulation of human GlyRalpha3beta expressed in CHO cells assessed as potentiation of EC5 to EC10 glycine-induced response at 10 uM by manual patch clamp assay; format: cell-based
# [2] = molecular target: T1, Glycine receptor alpha-3/beta; assay: Positive allosteric modulation of human GlyRalpha3beta expressed in CHO cells assessed as potentiation of EC20 glycine-induced response at 5.9 uM by fluorescence based HTS assay; format: cell-based
# [3] = molecular target: T1, Glycine receptor alpha-3/beta; assay: Positive allosteric modulation of human GlyRalpha3beta expressed in CHO cells assessed as potentiation of EC20 glycine-induced ion flux at 10 uM by HT assay; format: cell-based
# Mus musculus [4] = assay: Antiallodynic activity in ddY mouse partial sciatic nerve ligation-injury model assessed as inhibition of mechanical allodynia by measuring paw withdrawal threshold in response to probing with von Frey hairs administered via iv route; format: functional
# [5] = molecular target: T1, Glycine receptor alpha-3/beta; assay: Positive allosteric modulation of human GlyRalpha3beta expressed in CHO cells assessed as potentiation of EC20 glycine-induced ion flux by HT assay; format: cell-based
# [6] = molecular target: T2, Sodium- and chloride-dependent glycine transporter 1 (Homo sapiens, UniProt P48067); assay: Inhibition of human GlyT-1
# T2 sequence (P48067 whole entry): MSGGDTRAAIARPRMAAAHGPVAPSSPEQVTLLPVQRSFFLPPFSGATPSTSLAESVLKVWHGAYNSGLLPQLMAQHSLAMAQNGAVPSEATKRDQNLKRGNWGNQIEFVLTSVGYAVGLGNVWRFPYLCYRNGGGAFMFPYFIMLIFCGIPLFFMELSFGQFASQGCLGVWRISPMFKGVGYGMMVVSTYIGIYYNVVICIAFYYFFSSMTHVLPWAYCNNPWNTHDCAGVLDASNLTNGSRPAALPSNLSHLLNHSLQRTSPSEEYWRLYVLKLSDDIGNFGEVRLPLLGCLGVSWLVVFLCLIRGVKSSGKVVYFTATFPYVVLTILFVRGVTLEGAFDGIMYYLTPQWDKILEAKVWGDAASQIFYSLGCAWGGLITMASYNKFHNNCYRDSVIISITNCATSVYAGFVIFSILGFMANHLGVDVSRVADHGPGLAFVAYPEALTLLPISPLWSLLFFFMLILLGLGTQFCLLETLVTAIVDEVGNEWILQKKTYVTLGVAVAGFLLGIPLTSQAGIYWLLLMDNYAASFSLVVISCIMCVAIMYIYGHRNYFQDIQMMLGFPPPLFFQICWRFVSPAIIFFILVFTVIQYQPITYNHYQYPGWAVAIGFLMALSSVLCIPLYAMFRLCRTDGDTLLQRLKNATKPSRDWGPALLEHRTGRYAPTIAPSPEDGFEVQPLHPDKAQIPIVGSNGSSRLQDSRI
# [7] = Toxicity in ip dosed formalin-induced pain mouse model; format: organism-based; conditions: in vivo
# Mus musculus [8] = assay: Analgesic activity in formalin-induced pain mouse model assessed as reduction in phase 2 paw licking behavior at 100 mg/kg, ip; format: functional; design: scale not given: the % may be the effect or the level left
# Mus musculus [9] = assay: In vivo receptor occupancy at GlyT-2 in formalin-induced pain mouse model at 100 mg/kg, ip; format: functional
# [10] = Unbound brain to plasma concentration ratio in mouse; format: ADME, cell-free; conditions: read-out: K(p,uu,brain)
# Rattus norvegicus [11] = species: Rattus norvegicus; assay: Inhibition of GlyT in rat spinal cord lamina X neuron assessed as increase in extracellular glycine level at 10 uM relative to basal level; design: scale not given: the % may be the effect or the level left
# [12] = molecular target: T2, Sodium- and chloride-dependent glycine transporter 1; assay: Inhibition of human GlyT-1 expressed in CHO cells assessed as reduction in [3H]-glycine uptake; format: cell-based
# Mus musculus [13] = assay: In vivo receptor occupancy at GlyT-2 in formalin-induced pain mouse model at 25 mg/kg, ip; format: functional
# Mus musculus [14] = assay: In vivo receptor occupancy at GlyT-2 in formalin-induced pain mouse model at 20 mg/kg, ip; format: functional
# Mus musculus [15] = assay: In vivo receptor occupancy at GlyT-2 in formalin-induced pain mouse model at 0.06 mg/kg, ip; format: functional
# Mus musculus [16] = assay: Analgesic activity in formalin-induced pain mouse model assessed as reduction in phase 2 paw licking behavior at 25 mg/kg, ip; format: functional; design: scale not given: the % may be the effect or the level left
# Rattus norvegicus [17] = assay: Analgesic activity in sc dosed formalin-induced pain rat model by formalin test; format: functional
# Rattus norvegicus [18] = assay: Antiallodynic activity in po dosed rat spinal nerve ligation model assessed as reduction in mechanical allodynia; format: functional
# [19] = molecular target: 5-hydroxytryptamine receptor 2A (Homo sapiens, UniProt P28223); assay: Antagonist activity at human 5-HT2A; format: functional
# Chain of 5-hydroxytryptamine receptor 2A (P28223 whole entry): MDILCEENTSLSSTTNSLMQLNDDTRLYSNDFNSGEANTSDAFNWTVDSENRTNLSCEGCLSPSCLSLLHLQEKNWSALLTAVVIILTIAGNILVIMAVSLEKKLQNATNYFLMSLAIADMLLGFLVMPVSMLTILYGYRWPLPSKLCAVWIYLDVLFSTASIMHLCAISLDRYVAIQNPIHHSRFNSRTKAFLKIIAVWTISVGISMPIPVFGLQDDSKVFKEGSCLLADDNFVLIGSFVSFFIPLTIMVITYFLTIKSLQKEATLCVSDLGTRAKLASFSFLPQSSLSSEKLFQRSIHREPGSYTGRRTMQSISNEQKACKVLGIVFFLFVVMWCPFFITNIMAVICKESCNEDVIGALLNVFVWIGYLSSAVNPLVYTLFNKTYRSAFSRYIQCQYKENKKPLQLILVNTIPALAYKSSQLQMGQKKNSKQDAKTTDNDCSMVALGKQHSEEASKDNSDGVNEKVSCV
# Rattus norvegicus [20] = species: Rattus norvegicus; assay: Antiallodynic activity in Sprague-Dawley rat model of spared nerve injury-induced allodynia assessed as inhibition of electrically evoked inhibitory post-synaptic current amplitude in spinal cord by electrophysiology method; format: functional
# [21] = molecular target: T3, P2X purinoceptor 7 (Mus musculus) (UniProt Q9Z1M0); assay: Agonist activity at P2X7 receptor in C57Bl6 mouse lumbar spinal cord slices assessed as increase in glycinergic inhibitory postsynaptic currents after 20 to 26 mins by electrophysiology method relative to control; design: scale not given: the % may be the effect or the level left
# T3 sequence (whole entry): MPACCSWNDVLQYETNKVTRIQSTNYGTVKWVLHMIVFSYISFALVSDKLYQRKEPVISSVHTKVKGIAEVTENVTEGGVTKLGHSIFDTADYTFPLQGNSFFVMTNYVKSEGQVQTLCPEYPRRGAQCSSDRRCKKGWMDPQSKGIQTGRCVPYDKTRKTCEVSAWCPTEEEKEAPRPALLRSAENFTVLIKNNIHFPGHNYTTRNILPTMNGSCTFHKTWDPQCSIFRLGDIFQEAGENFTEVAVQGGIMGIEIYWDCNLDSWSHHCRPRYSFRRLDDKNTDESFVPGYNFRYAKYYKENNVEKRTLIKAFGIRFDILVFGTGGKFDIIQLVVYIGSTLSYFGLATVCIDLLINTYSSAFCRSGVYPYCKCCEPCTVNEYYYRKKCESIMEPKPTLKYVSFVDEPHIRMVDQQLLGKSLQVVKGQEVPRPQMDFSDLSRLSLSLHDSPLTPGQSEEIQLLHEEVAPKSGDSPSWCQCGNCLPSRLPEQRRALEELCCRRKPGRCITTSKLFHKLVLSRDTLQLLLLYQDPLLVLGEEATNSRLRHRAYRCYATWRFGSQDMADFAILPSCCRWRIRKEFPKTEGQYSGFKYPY
# [22] = molecular target: T4, Sodium- and chloride-dependent glycine transporter 2 (Homo sapiens, UniProt Q9Y345); assay: Inhibition of human GlyT-2 expressed in HEK293 cells assessed as reduction in [3H]-glycine uptake preincubated for 30 mins followed by 3H]-glycine addition measured after 30 mins by liquid scintillation counting method; format: cell-based
# T4 sequence (Q9Y345 whole entry): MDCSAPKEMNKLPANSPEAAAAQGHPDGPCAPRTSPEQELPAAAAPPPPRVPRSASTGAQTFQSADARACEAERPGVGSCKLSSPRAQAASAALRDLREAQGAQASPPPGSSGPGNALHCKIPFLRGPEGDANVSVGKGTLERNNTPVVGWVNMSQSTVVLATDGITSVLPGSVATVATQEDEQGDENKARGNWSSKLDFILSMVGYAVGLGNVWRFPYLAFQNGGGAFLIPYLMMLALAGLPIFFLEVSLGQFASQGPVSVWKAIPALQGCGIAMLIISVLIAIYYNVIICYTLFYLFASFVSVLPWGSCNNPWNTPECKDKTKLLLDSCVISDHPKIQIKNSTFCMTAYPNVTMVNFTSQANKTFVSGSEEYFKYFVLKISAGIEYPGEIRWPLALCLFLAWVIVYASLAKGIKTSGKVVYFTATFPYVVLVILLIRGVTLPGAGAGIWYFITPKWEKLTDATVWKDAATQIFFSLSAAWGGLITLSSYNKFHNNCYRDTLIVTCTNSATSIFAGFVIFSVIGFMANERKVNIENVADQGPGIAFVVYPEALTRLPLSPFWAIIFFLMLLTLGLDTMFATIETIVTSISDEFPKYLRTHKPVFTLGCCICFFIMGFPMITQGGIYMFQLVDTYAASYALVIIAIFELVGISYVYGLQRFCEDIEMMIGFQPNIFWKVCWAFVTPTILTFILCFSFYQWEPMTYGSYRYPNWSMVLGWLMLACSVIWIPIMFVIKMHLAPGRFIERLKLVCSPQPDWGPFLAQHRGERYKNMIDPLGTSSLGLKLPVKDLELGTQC
# Homo sapiens = species: Homo sapiens; assay: Selectivity ratio of IC50 for human GlyT-1 expressed in HEK293 cells to IC50 for human GlyT-2 expressed in HEK293 cells; format: cell-based
# [23] = molecular target: T2, Sodium- and chloride-dependent glycine transporter 1; assay: Inhibition of human GlyT-1 expressed in HEK293 cells assessed as reduction in [3H]-glycine uptake preincubated for 30 mins followed by 3H]-glycine addition measured after 30 mins by liquid scintillation counting method; format: cell-based
# Rattus norvegicus [24] = species: Rattus norvegicus; assay: Antiallodynic activity in spinal cord injury Sprague-Dawley rat model assessed as inhibition of non-voiding contraction frequency at 30 ug, it relative to control; format: functional
# Rattus norvegicus [25] = species: Rattus norvegicus; assay: Antiallodynic activity in spinal cord injury Sprague-Dawley rat model assessed as inhibition of non-voiding contraction amplitude at 10 ug, it relative to control; format: functional
# Rattus norvegicus [26] = species: Rattus norvegicus; assay: Antiallodynic activity in spinal cord injury Sprague-Dawley rat model assessed as inhibition of non-voiding contraction amplitude at 30 ug, it relative to control; format: functional
# Rattus norvegicus [27] = species: Rattus norvegicus; assay: Antiallodynic activity in spinal cord injury Sprague-Dawley rat model assessed as inhibition of non-voiding contraction frequency at 10 ug, it relative to control; format: functional
# [28] = molecular target: T4, Sodium- and chloride-dependent glycine transporter 2; assay: Inhibition of GlyT-2 (unknown origin)
# Mus musculus [29] = assay: In vivo inhibition of GlyT in CFA-induced mechanical hyperalgesia C57BL/6J mouse model assessed as increase in extracellular glycine level in CSF at 200 mg/kg, sc relative to basal level; format: functional
# Mus musculus [30] = assay: Analgesic activity in CFA-induced mechanical hyperalgesia C57BL/6J mouse model assessed as reduction in mechanical paw withdrawal threshold administered sc measured after 2 hrs; format: functional, organism-based
# T1 sequence (O75311 whole entry): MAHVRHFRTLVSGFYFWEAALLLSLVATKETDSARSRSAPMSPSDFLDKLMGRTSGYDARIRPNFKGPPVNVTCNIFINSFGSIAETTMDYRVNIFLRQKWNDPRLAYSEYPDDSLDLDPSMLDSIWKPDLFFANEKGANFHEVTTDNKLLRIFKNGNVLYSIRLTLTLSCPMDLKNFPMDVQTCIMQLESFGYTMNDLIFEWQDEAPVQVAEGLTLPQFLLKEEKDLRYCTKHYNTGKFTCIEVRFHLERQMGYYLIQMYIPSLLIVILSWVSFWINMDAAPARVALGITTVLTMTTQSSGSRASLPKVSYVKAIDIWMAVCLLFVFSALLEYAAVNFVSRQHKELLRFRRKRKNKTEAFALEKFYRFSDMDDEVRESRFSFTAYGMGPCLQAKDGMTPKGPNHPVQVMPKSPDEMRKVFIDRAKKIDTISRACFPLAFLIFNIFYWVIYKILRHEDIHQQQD
# T1 sequence (P48167 whole entry): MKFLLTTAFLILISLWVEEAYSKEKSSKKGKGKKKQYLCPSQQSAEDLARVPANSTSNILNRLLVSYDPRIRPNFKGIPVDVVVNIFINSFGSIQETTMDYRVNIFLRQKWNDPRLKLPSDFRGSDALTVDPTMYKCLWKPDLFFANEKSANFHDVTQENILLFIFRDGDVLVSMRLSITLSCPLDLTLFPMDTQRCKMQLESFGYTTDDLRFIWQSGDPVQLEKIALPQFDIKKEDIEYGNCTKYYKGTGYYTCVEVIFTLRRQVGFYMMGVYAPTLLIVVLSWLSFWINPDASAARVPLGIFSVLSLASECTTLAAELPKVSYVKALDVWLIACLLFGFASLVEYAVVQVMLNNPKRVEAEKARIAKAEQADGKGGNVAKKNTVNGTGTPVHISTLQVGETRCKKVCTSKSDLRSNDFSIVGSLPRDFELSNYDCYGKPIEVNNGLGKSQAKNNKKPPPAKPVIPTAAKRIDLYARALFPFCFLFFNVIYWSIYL
compound,measurement,setting,value
CN1C(=O)[C@@H]2CN(S(=O)(=O)c3ccc4c(c3)OCO4)C[C@@H]2c2cnccc21,Activity,[1],1350%
same,Activity,[2],94%
same,Activity,[3],95%
CN1c2ncccc2N(Cc2ccccc2C(F)(F)F)C(=O)[C@H]1Cc1ccc(C(N)=O)cc1,Activity,[1],303%
same,Activity,[2],28%
same,Activity,[3],64%
NCC1(CC(=O)O)CCCCC1 [GABAPENTIN],ED50,Mus musculus [4],8200 ng
C#Cc1cc(C(=O)OC)cc(-c2ncco2)c1,EC50,[5],10.2 µM
same,Activity,[1],255%
same,Activity,[2],52%
same,Activity,[3],49%
COc1ccc2c(c1)CC[C@H](CN(C)CC(=O)O)[C@@H]2c1ccccc1 [ORG-25935],IC50,[6],0.1 µM
CC(C)(C)c1cc(C(C)(C)C)c(O)c(C(=O)O)c1O,EC50,[5],0.0135 µM
same,Activity,[1],2060%
same,Activity,[2],67%
same,Activity,[3],182%
COc1cc(C(=O)NCC2(N(C)C)CCCC2)cc(OC)c1OCc1ccccc1,ED50,Mus musculus [4],11 ng
same,MTD,[7],2 mg/kg
same,Activity,Mus musculus [8],80%
same,Occ,Mus musculus [9],60%
same,Kp uu,[10],0.5
same,Activity,Rattus norvegicus [11],337%
same,IC50,[12],> 100 µM
same,Occ,Mus musculus [13],36%
same,Occ,Mus musculus [14],82%
same,Occ,Mus musculus [15],6%
same,Activity,Mus musculus [16],33%
CCCCOc1c(OC)cc(C(=O)NCC2(N(C)C)CCOCC2)cc1OC,ED50,Rattus norvegicus [17],20 mg/kg
same,ED50,Rattus norvegicus [18],80 mg/kg
same,IC50,[19],1.3 µM
NS(=O)(=O)c1cc2c(cc1Cl)NC(C1CC3C=CC1C3)NS2(=O)=O (stereo not drawn) [CYCLOTHIAZIDE],inhibition (INH),Rattus norvegicus [20],37.9%
Nc1ncnc2c1ncn2[C@@H]1O[C@H](COP(=O)(O)OP(=O)(O)OP(=O)(O)O)[C@@H](OC(=O)c2ccc(C(=O)c3ccccc3)cc2)[C@H]1O,Activity,[21],135%
O=[N+]([O-])c1cccc(S(=O)(=O)NCCOc2cccc3cccnc23)c1,Activity,[1],136%
same,Activity,[2],23%
same,Activity,[3],98%
O=C(O)c1ccc(C[C@H]2Sc3c(F)cccc3N(Cc3ccccc3C(F)(F)F)C2=O)cc1,EC50,[5],0.661 µM
same,Activity,[1],396%
same,Activity,[2],52%
same,Activity,[3],59%
CNCC(=O)O [SARCOSINE],IC50,[6],91 µM
N[C@@H](COC(c1cccc(F)c1)c1ccccc1OCc1ccccc1)C(=O)O (stereo partly drawn),IC50,[22],0.1 µM
same,Ratio IC50,Homo sapiens,40
same,Kp uu,[10],0.036
same,IC50,[23],4 µM
same,inhibition (INH),Rattus norvegicus [24],76%
same,inhibition (INH),Rattus norvegicus [25],26%
same,inhibition (INH),Rattus norvegicus [26],37%
same,inhibition (INH),Rattus norvegicus [27],65%
O=S(=O)(NCCOc1cccc2cccnc12)c1ccccc1,EC50,[5],3.98 µM
same,Activity,[1],2710%
same,Activity,[2],65%
same,Activity,[3],182%
CCCCC/C=C\C/C=C\C/C=C\C/C=C\CCCC(=O)NCC(=O)O [ARACHIDONOYL GLYCINE],IC50,[28],3 µM
O=C(O)c1ccc(C[C@@H]2Sc3ccccc3N(Cc3ccccc3C(F)(F)F)C2=O)cc1F,Activity,[1],259%
same,Activity,[2],161%
same,Activity,[3],44%
CCNCC(=O)O,inhibition in vivo at 200 mg/kg,Mus musculus [29],25%
same,EC50,Mus musculus [30],98 mg/kg
